Results as given in US7371733B2, “Anti bacterial compounds” (Utah State University, priority 2006, dated 2008).
In brackets after ≈: the same amount, converted by molar mass. Read-outs that look alike come from different tables or passages of the source.

How the values were obtained:
[1] = system: E. coli (TG1) (pTZ19U-3); experiment: microbe, parasite or virus in culture; settings: Escherichia coli
Protocol: (§1) After the synthesis was completed, both representative aminoglycosides were assayed in standard dilution and diffusion assay against aminoglycoside susceptible and resistant strains of Escherichia coli using amikacin, kanamycin, ribostamycin, and butirosin as the controls. One resistant strain is equipped with the pTZ19-3 plasmid encoded for APH(3′)-I, which renders resistance to kanamycin, neomycin, lividomycin, paromomycin, and ribostamycin. The other resistant strain is equipped with the pSF815 plasmid encoded for AAC(6′) and APH(2″), which produces a bifunctional enzyme that catalyzes acetylation of amino group at C-6′ and phosphorylation of hydroxyl group at C-2″ position. This bifunctional enzyme enables bacteria to acquire resistance against gentamycin, amikacin, tobramycin, netilmicin, and kanamycin.
(§2) E. coli (pSF815) and E. coli (pTZ19U-3) are laboratory resistant strains using E. coli (TG1) as the host.

[2] = system: E. coli (TG1) (pSF815); settings: for Minimum Inhibitory Concentration: Table 1, E. coli (TG1) (pSF815), plasmid encoded for AAC6′/APH2″; for Minimum Inhibitory Concentrations (MIC): Table 2 entry 3, E. coli (TG1) pSF815 plasmid encoded for AAC(6′)/APH(2″)
Protocol: as §1, §2

[3] = system: E. coli (TG1); experiment: MIC, standard dilution and diffusion assay, aminoglycoside susceptible strain; settings: for MIC: Escherichia coli; for Minimum Inhibitory Concentrations (MIC): Table 2 entry 2, E. coli (TG1) aminoglycoside susceptible strain
Protocol: as §1, §2

[4] = system: E. coli (TG1) (pSF815); experiment: microbe, parasite or virus in culture; settings: Escherichia coli
Protocol: as §1, §2

[5] = system: E. coli (TG1) (pTZ19U-3); settings: for Minimum Inhibitory Concentrations (MIC): Table 2 entry 4, E. coli (TG1) pTZ19U-3 plasmid encoded for APH(3′)-I; for Minimum Inhibitory Concentration: Table 1, E. coli (TG1) (pTZ19U-3), plasmid encoded for APH(3′)-I
Protocol: as §1, §2

[6] = system: K. pneumoniae (ATCC 13883); experiment: MIC, standard reference strain; settings: for Minimum Inhibitory Concentrations (MIC): Table 2 entry 6, K. pneumoniae (ATCC 13883); for MIC: Klebsiella pneumoniae, ATCC13883, read-out: Minimum Inhibitory Concentrations (MIC)
Description: as §2

[7] = system: Staphylococcus aureus (ATCC 33591) (MRSA); experiment: MIC, methicillin-resistant S. aureus; settings: for Minimum Inhibitory Concentrations (MIC): Table 2 entry 7, Staphylococcus aureus (ATCC 33591) (MRSA); for MIC: Staphylococcus aureus, ATCC33591|MRSA, read-out: Minimum Inhibitory Concentrations (MIC)
Description: as §2

[8] = system: Escherichia coli (ATCC 25922); experiment: MIC, standard reference strain; settings: for Minimum Inhibitory Concentrations (MIC): Table 2 entry 1, Escherichia coli (ATCC 25922); for MIC: Escherichia coli, ATCC25922, read-out: Minimum Inhibitory Concentrations (MIC)
Description: as §2

[9] = system: S. aureus (ATCC 25923); experiment: MIC, standard reference strain; settings: for Minimum Inhibitory Concentrations (MIC): Table 2 entry 8, S. aureus (ATCC 25923); for MIC: Staphylococcus aureus, ATCC25923, read-out: Minimum Inhibitory Concentrations (MIC)
[10] = system: Pseudomonas aeruginosa (ATCC 27853); settings: for Minimum Inhibitory Concentrations (MIC): Table 2 entry 9, Pseudomonas aeruginosa (ATCC 27853)
Description: as §2

[11] = system: Klebsiella pneumoniae (ATCC 700603); settings: Table 2 entry 5
Description: as §2

[12] = system: Klebsiella pneumoniae (ATCC 700603); experiment: microbe, parasite or virus in culture; settings: ATCC700603, read-out: Minimum Inhibitory Concentrations (MIC)
Description: as §2

[13] = system: Pseudomonas aeruginosa (ATCC 27853); experiment: microbe, parasite or virus in culture; settings: ATCC27853, read-out: Minimum Inhibitory Concentrations (MIC)
Description: as §2

[14] = read-out: Minimum Inhibitory Concentration
[15] = read-out: Minimum Inhibitory Concentrations (MIC)

Compound | MIC [1, 14] [µg/mL] | MIC [3, 14] [µg/mL] | MIC [4, 14] [µg/mL] | Minimum Inhibitory Concentrations (MIC) [7] | Minimum Inhibitory Concentrations (MIC) [10] | Minimum Inhibitory Concentrations (MIC) [11] | MIC [4, 15] [µg/mL] | MIC [12] [µg/mL] | MIC [6] [µg/mL] | MIC [1, 15] [µg/mL] | MIC [3, 15] [µg/mL] | other results
CC1O[C@@H](O[C@@H]2C(O)C(N)CC(N)C2O[C@H]2OC(CN)[C@@H](O)C(O)C2N)C(O)C(O)[C@@H]1N (stereo partly shown) [TC005, pyranmycin] | 8 (≈ 17.1 µM) | 8 (≈ 17.1 µM) | – | – | – | – | – | – | – | – | – | Minimum Inhibitory Concentration [2]: Inactive
CC1O[C@@H](O[C@H]2C(O[C@H]3OC(CN)[C@@H](O)[C@H](O)C3N)C(N)C[C@@H](NC(=O)[C@@H](O)CCN)C2OCCN)C(O)[C@@H](O)[C@@H]1N (stereo partly shown) [JT050] | 4 (≈ 6.54 µM) | 8 (≈ 13.1 µM) | 2 (≈ 3.27 µM) | – | – | – | – | – | – | – | – | –
neomycin | – | – | – | Inactive | Inactive | Inactive | – | – | – | – | – | Minimum Inhibitory Concentrations (MIC) [5]: Inactive; Minimum Inhibitory Concentrations (MIC) [6]: 2 µg/mL; Minimum Inhibitory Concentrations (MIC) [2]: 2 µg/mL; Minimum Inhibitory Concentrations (MIC) [8]: 4 µg/mL; Minimum Inhibitory Concentrations (MIC) [9]: 1 µg/mL; Minimum Inhibitory Concentrations (MIC) [3]: 8 µg/mL
butirosin | – | – | – | Inactive | Inactive | 0.5 µg/mL | – | – | – | – | – | Minimum Inhibitory Concentration [5]: 0.5 µg/mL; Minimum Inhibitory Concentrations (MIC) [5]: 0.5 µg/mL; Minimum Inhibitory Concentrations (MIC) [6]: 0.5 to 1 µg/mL; Minimum Inhibitory Concentration [2]: 0.5 µg/mL; Minimum Inhibitory Concentrations (MIC) [2]: 0.25 µg/mL; Minimum Inhibitory Concentrations (MIC) [8]: 2 µg/mL; Minimum Inhibitory Concentrations (MIC) [9]: 2 µg/mL; Minimum Inhibitory Concentration ([3]; Table 1, E. coli (TG1)): 0.5 µg/mL; Minimum Inhibitory Concentrations (MIC) [3]: 1 µg/mL
CC1O[C@@H](O[C@@H]2C(O)[C@H](NC(=O)[C@@H](O)CCN)CC(N)[C@H]2O[C@H]2OC(CN)[C@@H](O)[C@H](O)C2N)C(O)[C@@H](O)[C@@H]1N (stereo partly shown) [JT005] | 4 (≈ 7.03 µM) | 4 (≈ 7.03 µM) | 4 (≈ 7.03 µM) | Inactive | Inactive | – | 4 (≈ 7.03 µM) | 1 to 2 (≈ 1.76 to 3.52 µM) | 2 (≈ 3.52 µM) | 4 (≈ 7.03 µM) | 4 (≈ 7.03 µM) | –
C[C@H]1O[C@@H](O[C@@H]2[C@@H](O)[C@H](NC(=O)[C@@H](O)CCN)C[C@H](N)[C@H]2O[C@H]2O[C@H](CN)CC[C@H]2N)[C@H](O)[C@@H](O)[C@@H]1N [pyrankacin] | – | – | – | – | – | – | 1 (≈ 1.86 µM) | 1 (≈ 1.86 µM) | 2 (≈ 3.73 µM) | 1 (≈ 1.86 µM) | 4 (≈ 7.45 µM) | MIC [7]: 8 µg/mL (≈ 14.9 µM); MIC [8]: 4 µg/mL (≈ 7.45 µM); MIC [9]: 2 µg/mL (≈ 3.73 µM); MIC [13]: 2 µg/mL (≈ 3.73 µM); activity against P. aeruginosa, in words ([10]; text statement summarising Table 2): active
gentamicin | – | – | – | 4 µg/mL | 0.5 to 1 µg/mL | 8 to 16 µg/mL | – | – | – | – | – | Minimum Inhibitory Concentrations (MIC) [5]: 1 µg/mL; Minimum Inhibitory Concentrations (MIC) [6]: 1 µg/mL; Minimum Inhibitory Concentrations (MIC) [2]: Inactive ^k; Minimum Inhibitory Concentrations (MIC) [8]: 2 µg/mL; Minimum Inhibitory Concentrations (MIC) [9]: 0.5 µg/mL; Minimum Inhibitory Concentrations (MIC) [3]: 2 µg/mL
CC1O[C@@H](O[C@@H]2C(OCCN)C(N)CC(N)C2O[C@H]2OC(CN)[C@@H](O)C(O)C2N)C(O)C(O)[C@@H]1N (stereo partly shown) [TC050] | 8 (≈ 15.7 µM) | 8 (≈ 15.7 µM) | – | – | – | – | – | – | – | – | – | Minimum Inhibitory Concentration [2]: Inactive
NC[C@H]1O[C@H](O[C@H]2[C@H](O[C@@H]3O[C@H](CO)[C@@H](O)[C@H]3O)[C@@H](O)[C@H](N)C[C@@H]2N)[C@H](N)[C@@H](O)[C@@H]1O [Ribostamycin, ribostamycin] | – | 2 (≈ 4.4 µM) | 16 (≈ 35.2 µM) | Inactive | Inactive | Inactive | 16 (≈ 35.2 µM) | – | 4 (≈ 8.8 µM) | 32 (≈ 70.4 µM) | 2 (≈ 4.4 µM) | Minimum Inhibitory Concentration [5]: Inactive; MIC [8]: 8 µg/mL (≈ 17.6 µM); MIC [9]: 8 µg/mL (≈ 17.6 µM)
CC1O[C@@H](O[C@H]2C(O[C@H]3OC(CN)CCC3N)C(N)C[C@@H](N)C2O)C(O)[C@@H](O)[C@@H]1N (stereo partly shown) [RR501, 3′,4′-Dideoxy Pyranmycin] | 4 (≈ 9.18 µM) | 8 (≈ 18.4 µM) | 4 (≈ 9.18 µM) | – | Inactive | – | 4 (≈ 9.18 µM) | 2 to 4 (≈ 4.59 to 9.18 µM) | 2 to 4 (≈ 4.59 to 9.18 µM) | 4 (≈ 9.18 µM) | 8 (≈ 18.4 µM) | activity against resistant bacteria equipped with APH(3′), in words ([5]; text statement summarising Table 1): active; MIC [7]: 4 µg/mL (≈ 9.18 µM)
NCC[C@H](O)C(=O)N[C@@H]1C[C@H](N)[C@@H](O[C@H]2O[C@H](CN)[C@@H](O)[C@H](O)[C@H]2O)[C@H](O)[C@H]1O[C@H]1O[C@H](CO)[C@@H](O)[C@H](N)[C@H]1O [Amikacin, amikacin] | 0.5 (≈ 0.854 µM) | 1 (≈ 1.71 µM) | 1 (≈ 1.71 µM) | – | – | – | 1 (≈ 1.71 µM) | 0.5 to 1 (≈ 0.854 to 1.71 µM) | 1 (≈ 1.71 µM) | 0.5 (≈ 0.854 µM) | 1 (≈ 1.71 µM) | MIC [7]: 16 µg/mL (≈ 27.3 µM); MIC [8]: 1 µg/mL (≈ 1.71 µM); MIC [9]: 1 µg/mL (≈ 1.71 µM); MIC [13]: 0.5 to 1 µg/mL (≈ 0.854 to 1.71 µM)
